Data on twelve molecules can be found in paper PMC11167338, “Exploring the impact of trifluoromethyl (–CF3) functional group on the anti-cancer activity of isoxazole-based molecules: design, synthesis, biological evaluation and molecular docking analysis” (RSC Advances, 2024).

Data set [1] relates to MCF-7 cells. Kind of data set: Intracellular ROS generation (DCFH-DA). The class given is cell-based, human. The note with it: MCF-7, 48 h, IC50 dose. The source says: This can result from the increased metabolic demands of rapidly dividing cancer cells and mitochondrial dysfunction. Elevated ROS levels can also damage DNA, contributing to genomic instability and the development of genetic mutations that drive cancer progression. Chemotherapy drugs, for example, can generate ROS as a byproduct of their mechanism of action, causing increase DNA damage and cell death in cancer cells. As a result, we investigated whether the compound 2g could cause ROS production within cancer cells.
The generation of reactive oxygen species in MCF-7 cells was investigated using the 2-7-dichlorodihydroflourescein diacetate (DCFH-DA) assay. The non-fluorescent DCFH-DA enters the cells, where cellular esterase cleaves off the acetyl groups to produce DCFH. ROS transform the molecule from DCFH to DCF, which produces green light. […] Following incubation, old medium was removed, and cells were treated with 10 μM DCFH-DA (S0033-Beyotime) in accordance with the recommended technique for 10 min at 37 °C in complete darkness. The intensity of fluorescence was then measured with a Laser Scanning Confocal Microscope (LSCM) DMI8 (Leica Microsystems, Germany) at 63× magnification at 485 nm and 535 nm for excitation and emission wavelengths. […] In the meantime, the increase in fluorescence intensity was determined in comparison to the control. Image J was used to calculate the relative fluorescence intensity (%). One-way ANOVA was used to determine significance, and the graph was created in GraphPad Prism™ version 8.0.1.

Data set [2] relates to MCF-7 cells. Kind of data set: Annexin-V/FITC-PI apoptosis assay (flow cytometry). The class given is cell-based, human. The note with it: MCF-7, 48 h, at in vitro IC50. On the procedure:
Several studies have reported that anticancer drug molecules employ their cytotoxicity induced cell death via apoptotic pathways. […] These findings imply that the programmed cell death mechanism generated by the lead compound 2g causes considerable apoptosis in cancer cells.
In MCF-7 cells, an apoptosis assay was done using a TACs/Annexin V kit from Biolegend, USA. MCF-7 cells were seeded with a density of 5.0 × 10^4 cells per well in a flat-bottomed 12-well plate and allowed overnight for attachment. Following media aspiration, 48 hours of treatment with compound 2g and BG-45 at their in vitro IC50 values in MCF-7 cells were performed in triplicate. The cells were then trypsinized after being rinsed twice with ice-cold PBS. The trypsinized cells were then collected, centrifuged, and the obtained cell pellet was washed with ice-cold PBS before being resuspended in 100 μL of freshly prepared Annexin V reagent, which included 10 μL of 10× binding buffer, 1 μL of FITC, 10 μL of PI, and made up to 100 μL with double distilled water. Following a 30 minutes dark incubation period, these samples were diluted to 500 μL using 400 μL of 1× binding buffer. Following incubation, the samples were examined using flow cytometry (BDAria™ III, BD biosciences).

The test system of the next data set is MCF-7. Put plainly: MTT anti-proliferative assay on MCF-7. The note with it: MTT, 48 hours treatment, mean ± SD (n = 2). In kind it is cell-based, human. The procedure:
(§1) All synthesized molecules were tested for their anticancer activity using the MTT assay protocol against the murine mammary carcinoma cell line (4T1), the human breast cancer (MCF-7), and the prostatic small cell carcinoma (PC-3). These compounds were then assessed for their IC50 determination at various concentrations. According to this finding, all synthesized compounds have the ability to inhibit the proliferation of a variety of cancer cell lines. […] It is more biased for MCF-7 cells over other cancer cells tested. Further, we contemplated conducting additional research to assess their anti-cancer effectiveness and mechanism (Fig. 3).
(§2) The mouse triple-negative breast cancer cell line (4T1), a human luminal A breast cancer cell line (MCF-7), a human prostate cancer cell line (PC-3), and a normal human embryonic kidney cell line (HEK-293) were procured from the National Center for Cell Science (NCCS, Pune, India). Dulbecco's Modified Eagle Medium (DMEM) (Himedia Laboratories Pvt Ltd, Mumbai, India) was used to cultivate MCF-7, 4T1, PC-3, and HEK-293 cells. All the mentioned cell lines were cultured in Dulbecco's Modified Eagle Medium (DMEM) supplemented with 10% heat-inactivated fetal bovine serum (Himedia Laboratories Pvt Ltd, Mumbai, India) and 1% antibiotic (Pen strep: A001), Himedia Laboratories Pvt Ltd, Mumbai, India. Cells were grown in a humidified environment with 5% CO2 at 37 °C. The experiment was performed using the yellow dye MTT [3-(4,5-dimethylthiazol-2-yl)-2, 5-diphenyltetrazolium bromide].
(§3) The MTT assay protocol was used to determine the IC50 values of the final compounds against different types of cancer cell lines and their selectivity over normal human cell lines. Dilutions of various concentrations were made from the compounds' DMSO stock solutions in the appropriate media. With a control solution of less than 1% DMSO in the appropriate media, dilutions from 200 μM to 0.781 μM concentrations were prepared using the serial dilution method. Cells were subcultured in their respective complete media according to the ATCC protocol before being seeded on a sterile 96-well plate with around 100 μL per well and a cell density of about 1 × 10^4 cells per well and incubated overnight. The medium was aspirated the following day, and adherent cells were treated with the respective concentrations 200 μM to 0.781 μM. The cells were then cultured for 48 hours in presence of compounds in the growth medium. The medium was aspirated post-treatment, and 100 μL of a 5 mg mL^−1 MTT solution in phenol red-free media was added. This mixture was then incubated for around 3 hours to check for the production of formazan crystals. The MTT solution was withdrawn, and 150 μL of DMSO was added to the wells to dissolve the generated crystals. The absorbance was measured at 570 nm and 650 nm. The percent cell viability was calculated for the IC50 values using GraphPad Prism™ version 8.0.1, and the results were shown as a dose–response curve.

For another data set, the system named is 4T1. Put plainly: MTT anti-proliferative assay on 4T1. The class given is cell-based, mouse. The note with it: Mus musculus, 4T1; MTT, 48 hours treatment, mean ± SD (n = 2). The procedure:
as §1, §2, §3

Another data set deals with HEK-293. Put plainly: MTT cytotoxicity on normal HEK-293 cells. In kind it is cell-based. The note with it: Homo sapiens, HEK293, normal cell line, 48 hours treatment, mean ± SD (n = 2).
Description: We also investigated their in vitro cytotoxicity against a normal human embryonic kidney (HEK-293) cell line to determine their IC50.
as §2, §3

The subject of another data set is PC-3. Kind of data set: MTT anti-proliferative assay on PC-3. The class given is cell-based, human. The note with it: Homo sapiens, PC-3; MTT, 48 hours treatment, mean ± SD (n = 2). On the procedure:
as §1, §2, §3

For data set [3], the system named is MCF-7 cells. Put plainly: Cell cycle analysis (PI, flow cytometry). In kind it is cell-based, human. The note with it: MCF-7, 48 hours, at IC50 concentration. On the procedure:
In addition to the apoptosis assay, the cell cycle progression of MCF-7 cells was also investigated using the compound 2g. The cell population at different cell cycle phases was assessed using flow cytometry. […] These findings highlight that the lead compound 2g specifically impacts cell cycle regulation in the early phase compared to control and standard compound-treated cells (Fig. 6).
Flow cytometry was used to study the cell cycle of compound 2g and BG-45 using the BDAria™ III, a BD biosciences equipment, and the data was processed using Flow Jo software. For this objective, 5.0 × 10^4 MCF-7 cells were seeded onto 12 well plates and incubated overnight. The media was aspirated the other day, and the treatment was continued for another 48 hours after adding the required concentrations of compound 2g and BG-45 to the aspirated media. Following the treatment, the sample wells were rinsed with ice-cold PBS, trypsinized, and collected as a cell pellet. After two ice-cold PBS washes, the pellet was fixed with a dropwise addition of 70% ice-cold ethanol, which was then gently vortexed to create a single-cell suspension. Overnight, the fixed cells were stored at −20 °C. The samples were then centrifuged, and the resulting cell pellet was resuspended in 500 μL of the staining solution made from 20% w/v RNase, 2% w/v PI, and roughly 0.1% v/v Triton X 100 solution in PBS. The dissolved samples were examined using flow cytometry in the BDAria™ III, BD Biosciences, after being incubated for 30 min at room temperature in the dark.
Background: In flow cytometry, cells or beads pass a laser one at a time.

Take `Nc1ccccc1NC(=O)c1cnccn1` [BG-45, reference compound]: in the data set with MCF-7 cells [1], the “Fluorescence intensity (DCFH-DA, ImageJ)” value stood at 18.02. The “total apoptotic percentage (Q2 and Q4)” value in the data set on MCF-7 cells [2] came to 16.4 ± 1.1%. Besides, the IC50 (commonly the point on the concentration scale where inhibition reaches its midpoint) came out at 43.6 µM with MCF-7 (Homo sapiens, MCF7, 48 h); 43.55 ± 0.18 µM in the data set with MCF-7; 59.14 ± 0.17 µM with 4T1; 144.56 ± 0.14 µM in the data set with HEK-293; 28.67 ± 0.14 µM with PC-3. In the data set on MCF-7 cells [3], the “cell population in G0/G1 phase” value was 63.6%. Moreover, the “cell population in G2/M phase” value with MCF-7 cells [3] was found to be 24.4%. Moreover, the “cell population in S phase” value with MCF-7 cells [3] is on record as 14.2%.
For `FC(F)(F)c1c(-c2ccccc2)noc1-c1ccccc1` [Compound 2a], the melting point (commonly the temperature of the solid-liquid transition) lay in the range of 60 to 65 °C. The IC50 in the data set on MCF-7 (Homo sapiens, MCF7, 48 h) amounted to 11.3 µM. This molecule also had an IC50 in the data set on MCF-7 of 11.3 ± 0.13 µM. The IC50 in the data set on 4T1 stood at 37.83 ± 0.2 µM. In the data set with HEK-293, this molecule yielded an IC50 of 114.9 ± 0.15 µM. The molecule also gave an IC50 in the data set with PC-3 of 16.14 ± 0.15 µM.
Take `FC(F)(F)c1c(-c2cccs2)noc1-c1ccccc1` [Compound 2b]: the melting point was 65 to 69 °C. Besides, in the data set with MCF-7 (Homo sapiens, MCF7, 48 h), the 50% inhibitory concentration (IC50) amounted to 9.76 µM. In the data set on MCF-7, the IC50 is 9.76 ± 0.09 µM. This molecule also came in with an IC50 in the data set with 4T1 of 35.36 ± 0.19 µM. This molecule showed a 50% inhibitory concentration (IC50) in the data set on HEK-293 of 103.3 ± 0.17 µM. In the data set with PC-3, this molecule had an IC50 of 13.6 ± 0.17 µM.
`FC(F)(F)c1c(-c2ccccc2)noc1-c1cccs1` [Compound 2c]: the IC50 stood at 8.19 ± 0.12 µM in the data set with MCF-7 (Homo sapiens, MCF7, 48 h); 28.78 ± 0.19 µM in the data set on 4T1; 98.76 ± 0.24 µM in the data set on HEK-293; 11.7 ± 0.16 µM with PC-3.
For `FC(F)(F)c1c(-c2cccc3ccccc23)noc1-c1cccs1` [Compound 2d] the same measures were 10.6 ± 0.19 µM, 37.18 ± 0.22 µM, 111.8 ± 0.17 µM and 15.59 ± 0.14 µM.
`FC(F)(F)c1c(-c2cccs2)noc1-c1ccco1` [Compound 2e] came in with a melting point of 66 to 70 °C. For the same molecule, in the data set with MCF-7 (Homo sapiens, MCF7, 48 h), the midpoint of inhibition, the IC50, lay at 5.48 µM. The same molecule gave an IC50 in the data set with MCF-7 of 5.48 ± 0.14 µM. This molecule also displayed an IC50 in the data set with 4T1 of 23.5 ± 0.21 µM. In the data set with HEK-293, the IC50 came out at 94.55 ± 0.2 µM. In addition, the concentration for half-maximal inhibition (IC50) with PC-3 came out at 11.6 ± 0.14 µM.
In the case of `FC(F)(F)c1c(-c2ccco2)noc1-c1cccs1` [Compound 2f], the IC50 in the data set with MCF-7 (Homo sapiens, MCF7, 48 h) was 5.32 µM; with MCF-7, 5.32 ± 0.19 µM; with 4T1, 18.12 ± 0.15 µM; in the data set on HEK-293, 86.98 ± 0.23 µM; in the data set with PC-3, 10.3 ± 0.15 µM.
Regarding `FC(F)(F)c1c(-c2cccs2)noc1/C=C/c1cccs1` [Compound 4, (E)-3-(thiophen-2-yl)-5-(2-(thiophen-2-yl)vinyl)-4-(trifluoromethyl)isoxazole], the IC50 in the data set with MCF-7 (Homo sapiens, MCF7, 48 h) was determined as 13.7 µM; with MCF-7, 13.71 ± 0.13 µM; with 4T1, 44.36 ± 0.2 µM; in the data set on HEK-293, 122 ± 0.16 µM; with PC-3, 17.99 ± 0.13 µM.
Regarding `FC(F)(F)c1c(-c2cccs2)noc1-c1c[nH]cc1-c1cccs1` [Compound 5, 3-(thiophen-2-yl)-5-(4-(thiophen-2-yl)-1H-pyrrol-3-yl)-4-(trifluoromethyl)isoxazole], the IC50 with MCF-7 (Homo sapiens, MCF7, 48 h) is 3.09 µM; in the data set on MCF-7 it was 3.09 ± 0.11 µM; with 4T1, 14.96 ± 0.13 µM; with HEK-293, 84.86 ± 0.19 µM; in the data set with PC-3, 9.56 ± 0.18 µM.
For `c1ccc(-c2cc(-c3ccccc3)on2)cc1` [Compound 7, 3,5-diphenylisoxazole] the same measures were 13 µM, 13.03 ± 0.13 µM, 41.58 ± 0.21 µM, 118.7 ± 0.21 µM and 17.42 ± 0.17 µM.
For `c1ccc(-c2cc(-c3cccs3)on2)cc1` [Compound 9, 3-phenyl-5-(thiophen-2-yl)isoxazole] the same measures were 10 µM, 9.99 ± 0.1 µM, 36.24 ± 0.2 µM, 109.3 ± 0.19 µM and 14.5 ± 0.17 µM.
Turning to `COc1ccc(-c2cc(-c3cccs3)on2)cc1OC` [Compound 14, 3-(3,4-dimethoxyphenyl)-5-(thiophen-2-yl)isoxazole, reference compound], the IC50 was 19.72 ± 0.16 µM in the data set on MCF-7 (Homo sapiens, MCF7, 48 h); 48.39 ± 0.19 µM with 4T1; 131.5 ± 0.13 µM with HEK-293; 30.21 ± 0.22 µM in the data set on PC-3.
